In patent US8697694B2, “Substituted pyridine and pyrimidine derivatives and their use in treating viral infections” (priority 2008, dated 2014) one finds EC90 data, which are given here for 54 compounds.

Structures are written as SMILES.

One assay relates to HCV replicon cells. Nature of the assay: Cell-based HCV replicon assay (replicon RNA level by real time PCR, Taqman). The following applies: Hepatitis C virus, 72 h, HCV replicon cells, harvested day 3, replicon RNA by real time PCR; given as number; read-out: EC90 (μM) range. The gist of the method:
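HCV replicon cells treated 3 days with 10 serial 2-fold compound dilutions (top 25 μM to 1 μM; 0.5% DMSO, 10% FBS). Replicon RNA quantified by multiplex Taqman RT-PCR (NS5B amplicon, GAPDH control); EC50 and EC90 = concentrations giving ΔCT of 1 and 3.2 over baseline.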
On the technique in general: Replicon systems follow genome replication, usually without infectious particles.
Broadly, the EC90 is the concentration needed for an effect of 90%. As to `CCOc1cc2cc(-c3c(C)nc(NCc4cc(OC)cc(OC)c4)nc3N[C@@H]3C[C@H](CO)[C@@H](O)[C@H]3O)oc2c(C)n1` [Example 36], the EC90 turned out to be 0.01 µM.

With `Cc1nc(NCC(C)(C)C)nc(N[C@@H]2C[C@H](CO)[C@@H](O)[C@H]2O)c1-c1cc2cc(OCC(F)(F)F)nc(C)c2o1` [Example 46], the EC90 is 0.85 µM.

Still in this assay, the particulars now being: Hepatitis C virus, 72 h, HCV replicon cells, harvested day 3, replicon RNA by real time PCR; reported as range class; read-out: EC90 (μM) range.
Turning to `CN(C)c1ccc2sc(-c3c(Cl)nc(N)nc3N[C@@H]3C[C@H](CO)[C@@H](O)[C@H]3O)nc2c1` [Example 200], the EC90 was less than 0.5 µM.

As for `Nc1nc(Cl)c(-c2nc3ccccc3s2)c(N[C@@H]2C[C@H](CO)[C@@H](O)[C@H]2O)n1` [Example 105], the EC90 is less than 0.5 µM.

For the compound `Nc1nc(Cl)c(-c2cc3cc(-c4nc5ccccc5o4)ccc3o2)c(N[C@@H]2C[C@H](CO)[C@@H](O)[C@H]2O)n1` [Example 180], the EC90 is more than 5 µM.

As to `Cc1nc(NCC(F)F)nc(N[C@@H]2C[C@H](CO)[C@@H](O)[C@H]2O)c1-c1nc2ccccc2s1` [Example 215], the EC90 is less than 0.5 µM.

On to `Cc1ccc2oc(-c3c(Cl)nc(N)nc3N[C@@H]3C[C@H](CO)[C@H]4OC(C)(C)O[C@H]43)nc2c1` [Example 192], for which the EC90 was more than 5 µM.

On to `OC[C@H]1C[C@@H](Nc2nc(NCC(F)F)nc(Cl)c2-c2nc3ccccc3s2)[C@H](O)[C@@H]1O` [Example 214], for which the EC90 is less than 0.5 µM.

Take `Nc1nc(Cl)c(-c2cc3cc([N+](=O)[O-])cnc3o2)c(N[C@@H]2C[C@H](CO)[C@@H](O)[C@H]2O)n1` [Example 302]: the EC90 was in the range of 0.5 to 5 µM.

With `OC[C@H]1C[C@@H](Nc2nc(N3CCC3)nc(Cl)c2-c2nc3ccccc3s2)[C@H](O)[C@@H]1O` [Example 413], the EC90 lay within 0.5 to 5 µM.

As to `COC[C@H]1C[C@@H](Nc2nc(N(C)C)nc(Cl)c2-c2nc3ccccc3s2)[C@@H]2OC(C)(C)O[C@H]12` [Example 120], the EC90 is more than 5 µM.

On to `CCCOc1cc2cc(-c3c(C)nc(NCCOC)nc3N[C@@H]3C[C@H](CO)[C@@H](O)[C@H]3O)oc2cn1` [Example 60], for which the EC90 was more than 5 µM.

For `COC[C@H]1C[C@@H](Nc2nc(N(C)C)nc(Cl)c2-c2nc3ccccc3s2)[C@H](O)[C@@H]1O` [Example 121], the EC90 is less than 0.5 µM.

On to `Nc1nc(Cl)c(-c2cc3cc(C(F)(F)F)ccc3o2)c(N[C@@H]2C[C@H](CO)[C@@H](O)[C@H]2O)n1` [Example 108], for which the EC90 is more than 5 µM.

Still in this assay, the particulars now being: Hepatitis C virus, 72 h, HCV replicon cells, harvested on day 3, replicon RNA by real time PCR; calculated EC90 reported as range class; read-out: EC90 (μM) range.
Regarding `Cc1nc(NCc2cccs2)nc(N[C@@H]2C[C@H](C)[C@H]3OC4(CCCCC4)O[C@H]32)c1-c1nc2ccccc2s1` [Example 335], the EC90 is more than 5 µM.

With `CCc1cc2cc(-c3c(Cl)nc(NCCC(F)(F)F)nc3N[C@@H]3C[C@H](CO)[C@@H](O)[C@H]3O)oc2cn1` [Example 520], the EC90 was less than 0.5 µM.

Regarding `CCCCCNc1nc(Cl)c(-c2nc3ccccc3s2)c(N[C@@H]2C[C@H](CO)[C@@H](O)[C@H]2O)n1` [Example 433], the EC90 was less than 0.5 µM.

For the compound `COC[C@H](C)Nc1nc(C)c(-c2nc3ccccc3s2)c(N[C@@H]2C[C@H](CO)[C@@H](O)[C@H]2O)n1` [Example 439], the EC90 is less than 0.5 µM.

For the compound `CCc1cc2cc(-c3c(C)nc(NCCOC)nc3N[C@@H]3C[C@H](CO)[C@@H](O)[C@H]3O)oc2cn1` [Example 508], the EC90 was less than 0.5 µM.

For `COc1cc(CNc2nc(C)c(-c3nc4ccccc4s3)c(N[C@@H]3C[C@H](CO)[C@@H](O)[C@H]3O)n2)cc(OC)c1OC` [Example 711], the EC90 was less than 0.5 µM.

For the compound `CCCCNc1nc(C)c(-c2nc3ccccc3s2)c(N[C@@H]2C[C@H](CO)[C@@H](O)[C@H]2O)n1` [Example 434], the EC90 was less than 0.5 µM.

Consider `Cc1nc(NCc2ccccc2F)nc(N[C@@H]2C[C@H](CO)[C@@H](O)[C@H]2O)c1-c1nc2ccccc2s1` [Example 233], for which the EC90 is less than 0.5 µM.

For the compound `CCc1cc2cc(-c3c(C)nc(NCc4cc(OC)cc(OC)c4)nc3N[C@@H]3C[C@H](CO)[C@H]4OC(C)(C)O[C@H]43)oc2cn1` [Example 345], the EC90 is less than 0.5 µM.

`CCc1cc2cc(-c3c(Cl)nc(NC(C)C)nc3N[C@@H]3C[C@H](CO)[C@@H](O)[C@H]3O)oc2cn1` [Example 502]: the EC90 is less than 0.5 µM.

With `COCc1cc2cc(-c3c(C)nc(NCc4nccs4)nc3N[C@@H]3C[C@H](CO)[C@H]4OC(C)(C)O[C@H]43)oc2cn1` [Example 339], the EC90 is less than 0.5 µM.

Turning to `Cc1nc(NCC(F)(F)F)nc(N[C@@H]2C[C@H](CO)[C@H]3OC(C)(C)O[C@H]32)c1-c1cc2cc(C(F)(F)F)ncc2o1` [Example 140], the EC90 is 0.5 to 5 µM.

Take `Cc1nc(NCc2nccs2)nc(N[C@@H]2C[C@H](CO)[C@@H](O)[C@H]2O)c1-c1nc2ccccc2s1` [Example 474]: the EC90 was less than 0.5 µM.

As for `Cc1cccnc1CNc1nc(C)c(-c2nc3ccccc3s2)c(N[C@@H]2C[C@H](CO)[C@@H](O)[C@H]2O)n1` [Example 499], the EC90 is less than 0.5 µM.

The assay is the same for the next values; noted with them: Hepatitis C virus, 72 h, HCV replicon cells, replicon RNA level by real time PCR (Taqman), harvested on day 3; calculated EC90 reported as range class; read-out: EC90 (μM) range.
`CCOc1nc(C)cc2cc(-c3c(C)nc(NC(C)c4ccc(C)cc4)nc3N[C@@H]3C[C@H](CO)[C@@H](O)[C@H]3O)oc12` (stereo partly drawn) [Example 1249]: the EC90 is 0.5 to 5 µM.

`CCOc1nc(C)cc2cc(-c3c(C)nc(NCC(F)(F)F)nc3N[C@@H]3C[C@H](CO)[C@@H](O)[C@H]3O)oc12` [Example 1246]: the EC90 was less than 0.5 µM.

On to `Cc1nc(NCC(C)(C)C)nc(N[C@@H]2C[C@H](CO)[C@@H](O)[C@H]2O)c1-c1nc2cnccc2s1` [Example 536], for which the EC90 was less than 0.5 µM.

As to `CNc1nc(C)c(-c2nc3cnccc3s2)c(N[C@@H]2C[C@H](CO)[C@@H](O)[C@H]2O)n1` [Example 1326], the EC90 is less than 0.5 µM.

Consider `CCOCCNc1nc(C)c(-c2ccc3ccccc3n2)c(N[C@@H]2C[C@H](CO)[C@@H](O)[C@H]2O)n1` [Example 1324], for which the EC90 was more than 5 µM.

With `COc1cc(COc2nc(C)c(-c3nc4ccccc4s3)c(N[C@@H]3C[C@H](CO)[C@@H](O)[C@H]3O)n2)cc(OC)c1` [Example 1210], the EC90 was more than 5 µM.

With `[2H]C([2H])(Nc1nc(C)c(-c2nc3ccccc3s2)c(N[C@@H]2C[C@H](CO)[C@@H](O)[C@H]2O)n1)c1ccccc1` [Example 1245], the EC90 was less than 0.5 µM.

As for `Cc1nc(Nc2cccc(OC(F)(F)F)c2)nc(N[C@@H]2C[C@H](CO)[C@@H](O)[C@H]2O)c1-c1nc2ccccc2s1` [Example 1237], the EC90 was more than 5 µM.

Still in this assay, the particulars now being: Hepatitis C virus, 72 h, HCV replicon cells, replicon RNA level by real time PCR, harvested day 3; read-out: EC90 (μM) range.
For the compound `Cc1nc(N[C@H](C)C2CC2)nc(N[C@@H]2C[C@H](CO)[C@@H](O)C2(C)O)c1-c1nc2cnccc2s1` (stereo partly drawn) [Example 1384], the EC90 is less than 0.5 µM.

On to `Cc1nc(NCc2cc3cnn(C(=O)OC(C)(C)C)c3cc2F)nc(N[C@@H]2C[C@H](CO)[C@H]3OC(C)(C)O[C@H]32)c1-c1nc2ccccc2s1` [Example 1908], for which the EC90 was in the range of 0.5 to 5 µM.

Turning to `Cc1nc(NCC(F)(F)F)nc(NC2CCNC2)c1-c1nc2ccccc2s1` (stereo not drawn) [Example 1517], the EC90 is more than 5 µM.

For `Cc1nc(NCC(F)(F)F)nc(N[C@@H]2C[C@H](CNS(=O)(=O)CCN)[C@@H](O)[C@H]2O)c1-c1nc2ccccc2s1` [Example 1518], the EC90 is more than 5 µM.

As for `CCCc1nccc2sc(-c3c(C)nc(N[C@H](C)C4CC4)nc3N[C@@H]3C[C@H](CN(C)S(C)(=O)=O)[C@@H](O)[C@H]3O)nc12` [Example 1389], the EC90 is less than 0.5 µM.

Regarding `Cc1nc(N[C@@H](c2cccs2)C(F)(F)F)nc(N[C@@H]2C[C@H](CO)[C@@H](O)[C@H]2O)c1-c1nc2ccccc2s1` [Example 1801], the EC90 was less than 0.5 µM.

`Cc1ccc([C@@H](C)Nc2nc(C)c(-c3nc4cnccc4s3)c(N[C@@H]3C[C@H](CO)[C@@H](O)[C@@]3(C)O)n2)cc1` [Example 1708]: the EC90 is less than 0.5 µM.

With `CCNC(=O)OC[C@H]1C[C@@H](Nc2nc(NCC(F)(F)F)nc(C)c2-c2nc3ccccc3s2)[C@H](O)[C@@H]1O` [Example 1628], the EC90 is less than 0.5 µM.

Take `Cc1nc(NCC2CC2)nc(N[C@@H]2CC[C@@H](O)[C@@]2(C)O)c1-c1nc2c(C)nccc2s1` [Example 1815]: the EC90 is less than 0.5 µM.

For `Cc1nc(NC2CCC2)nc(N[C@@H]2C[C@H](CO)[C@@H](O)[C@H]2O)c1-c1nc2c(C)nccc2s1` [Example 1544], the EC90 was less than 0.5 µM.

Regarding `COc1nc(C)c(-c2nc3ccccc3s2)c(N[C@@H]2C[C@H](CO)[C@@H](O)[C@H]2O)n1` [Example 1907], the EC90 is 0.5 to 5 µM.

As for `Cc1nc(N[C@@H](c2ccsc2)C(F)(F)F)nc(N[C@@H]2C[C@H](CO)[C@@H](O)[C@H]2O)c1-c1nc2c(C)nccc2s1` [Example 1361], the EC90 was less than 0.5 µM.

As for `Cc1nc(NCC(F)(F)F)nc(N[C@@H]2C[C@H](CNS(C)(=O)=O)[C@@H](O)[C@H]2O)c1-c1nc2ccccc2s1` [Example 1507], the EC90 was less than 0.5 µM.

With `CCNC(=O)NC[C@H]1C[C@@H](Nc2nc(NCC(F)(F)F)nc(C)c2-c2nc3ccccc3s2)[C@H](O)[C@@H]1O` [Example 1377], the EC90 fell in the range of 0.5 to 5 µM.

For `Cc1nc(N[C@H](C)C2CC2)nc(N[C@@H]2C[C@H](CO)[C@@H](O)[C@H]2O)c1-c1nc2c(CC(C)C)nccc2s1` [Example 1373], the concentration for an effect of 90% (EC90) was less than 0.5 µM.

Take `CCc1nccc2sc(-c3c(C)nc(N[C@H](C)C4CC4)nc3N[C@@H]3C[C@H](CS(C)(=O)=O)[C@@H](O)[C@H]3O)nc12` [Example 1382]: the EC90 was less than 0.5 µM.

Take `Cc1nc(N[C@H](C)c2ccc(-n3cccn3)cc2)nc(N[C@@H]2C[C@H](CO)[C@@H](O)[C@H]2O)c1-c1nc2ccccc2s1` [Example 1365]: the EC90 was less than 0.5 µM.

Take `Cc1nc(NCC(F)(F)F)nc(NC2CCN(C(=O)OC(C)(C)C)CC2)c1-c1nc2ccccc2s1` [Example 1514]: the EC90 is more than 5 µM.
